System: tissues with NASH
Test: Evaluation of drug treatment in NASH disease model using GAN-generated phase/fluorescence images
Assay type: cell-based
Details: NASH 2X + ACC inhibitor
From the text: FIG. 16A illustrates synthetic images generated by an exemplary GAN model to study the NASH disease, in accordance with some embodiments. In the depicted example, Hepg2 cells with NASH genetic background are illuminated using an optimal illumination pattern identified using techniques described herein, and a bright-field image is captured. The bright-field image is inputted into a GAN model, which outputs a generated phase image and a generated fluorescence/bodipy image in FIG. 16A. The GAN model used in FIG. 16A can be configured to include a trained classifier as described with reference to FIGS. 14A-B and 15. The classifier has two conditions: a healthy condition (e.g., no perturbations) and a diseased condition (e.g., inflammation cocktail plus fatty acid). […]
The synthetic images generated by the GAN model can also be used to evaluate the efficacy of a treatment. […] The images can be phase images or fluorescence images generated using the techniques described herein (e.g., from bright-field images). Each phase or fluorescence image can be generated based on multiple bright-field images and thus comprises richer information such as phase shift information. Accordingly, the generated phase or fluorescence images can allow for higher precision in downstream analyses, as described below. […]

Q: How did the “probability of having the disease outputted by a classifier trained on generated images (distribution, FIG. 16C)” value (50 uM, treated tissues vs untreated diseased tissues, generated images) turn out when `COc1ccccc1[C@H](Cn1c(=O)n(C(C)(C)C(=O)O)c(=O)c2c(C)c(-c3ncco3)sc21)OC1CCOCC1` [ACC inhibitor, firsocostate] was run?
A: The value was “lower probabilities of having the disease than generated images of diseased tissues”.

Q: What about the “image clusters in an embedding space (UMAP, FIG. 16D)” value (generated images of treated vs diseased vs healthy tissues) of the same molecule?
A: The value was “moves away from the cluster of generated diseased images and toward the cluster of generated healthy images”.
